From patent US9820963B2, “Composition containing lignan compound as active ingredient for preventing or treating cancer” (KOREA RESEARCH INSTITUTE OF BIOSCIENCE AND BIOTECHNOLOGY, priority 2013, dated 2017)
“Also recorded” adds a separate entry of the source.

Key:
[1] = system: ERKs/RSKs signaling pathway; assay: Western blot of EGF-stimulated cells, ERKs/RSKs signaling pathway; type: cell-based, mouse; settings: for ERK1/2 phosphorylation at Thr202/Tyr204: JB6 Cl41 cells
Procedure: The cultured JB6 Cl41 cells (1×10^6 cells) were aliquoted into a cell culture dish with a diameter of 100 mm and they were cultured overnight. Then, the cells were left for 24 hours in 0.1% FBS-MEM and pretreated with magnolin at concentrations of 15 μM, 30 μM, and 60 μM for 30 minutes, respectively, and after 30 minutes, co-treated with EGF and magnolin.
The proteins were extracted from the cultured JB6 Cl41 cells and the samples containing the proteins were analyzed by 8% to 10% SDS-PAGE, and transferred onto polyvinylidene difluoride (PVDF) membranes. The membranes were cultured in a blocking buffer containing 5% skim milk. Then, Western blot was performed using specific antibodies for phospho-MEK (MAPK (mitogen-activated protein kinase)/ERK kinase), total-MEK, phospho-ERK, total-ERK, phospho-RSK, total-RSK, phospho-Akt, total-Akt, phospho-p38 kinase, total-p38 kinase, phospho-JNK (c-Jun N-terminal kinase), and total-JNK (all the antibodies obtained from Cell Signaling Technology, Beverly, Mass., USA). In particular, β-actin (Santa Cruz, Calif., USA) was used as a control and the Western blot was visualized with an enhanced chemiluminescence detection system (Amersham Biosciences, Piscataway, N.J., USA) using the Chemidoc XRS imager system (Bio-Rad Laboratories, Hercules, Calif., USA).
To confirm whether the action of magnolin, which interrupts phosphorylation at Thr359/Ser363 of RSKs, was selective in MEKs/ERKs signaling pathways or not, the action was compared by conducting an experiment on the phosphorylation of ERKs and RSKs by treatment with PD98059, an MEK1/2 inhibitor. As a result, it was confirmed that PD98059 interrupts ERK1/2 phosphorylation at Thr202/Tyr204.

[2] = system: A549 cells having Ras^G12V; assay: Anchorage-independent colony growth in soft agar; type: cell-based, human; settings: 15, 30, 60 μM, 10 days
Procedure: Further, H226 cells (8×10^3 cells) having Ras-wt and A549 cells (8×10^3 cells) having Ras^G12V were cultured in 1 mL of 0.3% DMEM agar containing 10% FBS and 15 μM, 30 μM, and 60 μM of magnolin, respectively, maintained at 37° C., and cultured in a 5% CO2 bioreactor for 10 days. As the result of counting the number and size of the cell colonies using an ECLIPSE Ti inverted microscope and the NIS-Elements AR (V. 4.0) computer software program, it was observed that an anchorage-independent colony growth of A549 cells was inhibited by magnolin.

[3] = biological target: ERK1 (Homo sapiens, UniProt P27361); assay: In vitro kinase analysis with active ERK1 and His-RSK2-328-740; type: biochemical
Chain of ERK1 (P27361 whole entry, species assumed, the tested form may be a part): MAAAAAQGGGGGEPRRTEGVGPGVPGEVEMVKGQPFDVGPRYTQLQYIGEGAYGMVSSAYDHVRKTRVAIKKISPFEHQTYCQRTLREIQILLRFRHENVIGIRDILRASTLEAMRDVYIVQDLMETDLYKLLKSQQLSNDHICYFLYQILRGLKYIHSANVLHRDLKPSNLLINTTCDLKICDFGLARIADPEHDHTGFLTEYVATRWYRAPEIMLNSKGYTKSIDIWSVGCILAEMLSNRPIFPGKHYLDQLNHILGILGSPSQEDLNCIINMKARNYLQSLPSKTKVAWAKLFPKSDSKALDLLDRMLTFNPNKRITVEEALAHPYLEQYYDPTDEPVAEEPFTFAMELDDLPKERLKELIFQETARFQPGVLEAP
Procedure: (§1) A truncated RSK2 protein containing the amino acid at position 328 to the amino acid at position 740 (His-RSK-328-740) was purified using Ni-NTA agarose beads (Qiagen Korea Ltd., Seoul, Korea) (Left panel on FIG. 13A) and an in vitro-kinase analysis was performed using active ERK and His-RSK2-328-740 proteins. Specifically, in the in vitro-kinase analysis, 20 μL of the purified sample was treated with 20 ng of active ERK1 or ERK2, 100 ng of RSK2, and 100 μM of cold-ATP, and 3.75 μM, 7.5 μM, 15 μM, 30 μM, and 60 μM of magnolin, respectively. Then, the kinase reaction was performed for 30 minutes at 30° C. The reaction was stopped by adding 6×SDS-sample buffer followed by boiling. Upon termination of the reaction, the resultant was visualized by Western blot.
(§2) As the result of the computational docking, it was observed that magnolin forms hydrogen bonds with Lys168 of ERK1 (Left panel on FIG. 13B) and Met108 and Lys54 of ERK2 (Right panel on FIG. 13B), respectively. Further, it was confirmed that magnolin in the active pocket of ERK1 or ERK2 was completely different in molecular structure and binding angle. The docking scores of magnolin at the active pockets of ERK1 and ERK2 were −0.7 and −6.68, respectively. Further, to measure the IC50 value on the activity of ERK1 or ERK2, the in vitro-kinase analysis was performed.

[4] = system: JB6 Cl41 cells; assay: EGF-induced cell cycle progression; type: cell-based, mouse; settings: 60 μM or higher, 1 ng/mL EGF, 12 hours
Procedure: Then, the cells were pretreated with magnolin to final concentrations of 15 μM, 30 μM, and 60 μM, respectively, for 30 minutes. Then, under the presence of magnolin, the cells were stimulated with 1 ng/mL of EGF for 12 hours.

[5] = biological target: T1, ERK2 (Homo sapiens, UniProt P28482); assay: Magnolin competition analysis using ATP-agarose beads; type: binding; settings: increasing magnolin
T1 sequence (P28482 whole entry): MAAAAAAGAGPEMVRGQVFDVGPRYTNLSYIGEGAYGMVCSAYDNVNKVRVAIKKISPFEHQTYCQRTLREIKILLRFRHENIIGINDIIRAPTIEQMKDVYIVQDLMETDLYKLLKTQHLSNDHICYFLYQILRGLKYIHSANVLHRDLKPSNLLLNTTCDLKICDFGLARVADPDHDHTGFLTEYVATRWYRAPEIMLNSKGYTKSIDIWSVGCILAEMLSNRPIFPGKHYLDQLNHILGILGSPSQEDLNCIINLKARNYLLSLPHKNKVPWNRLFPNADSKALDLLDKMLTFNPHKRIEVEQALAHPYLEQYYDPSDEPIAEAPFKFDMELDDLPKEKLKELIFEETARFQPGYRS
Procedure: Then, to confirm whether magnolin was competitive with ATP or not, a magnolin competition analysis was performed using APT-agarose beads. As the result of the experiment, it was confirmed that an increase in magnolin decreased ERK2 that bind to ATP-agarose beads (FIG. 13E).

[6] = system: A549 human lung cancer cells harboring Ras^G12V; assay: Cell proliferation of lung cancer cells; type: cell-based; settings: 15, 30, 60 μM, 96 hours
Procedure: H226 human lung cancer cells (2×10^3 cells) harboring Ras-wt and A549 human lung cancer cells (2×10^3 cells) harboring Ras^G12V, mutant activating factor, were aliquoted into 96-well plates, respectively, and treated with magnolin at concentrations of 15 μM, 30 μM, and 60 μM. The cells were cultured for 96 hours at 24 hour intervals and the cell proliferation was measured.

[7] = system: Mouse skin epidermal JB6 Cl41 cells; assay: MTS assay, inhibitory effect of magnolin on cell proliferation; type: cell-based; settings: up to 96 hours, read-out: inhibition of cell proliferation compared with DMSO control
Procedure: Mouse skin epidermal JB6 Cl41 cells were cultured in Dulbeco's Modified Eagle's Medium (DMEM) containing 10% FBS at 37° C. in a 5% CO2 bioreactor. The cells were subcultured at 80% to 90% confluence and the medium was changed every 2 to 3 days.
The cultured JB6 Cl41 cells (1×10^3 cells) were aliquoted into 96-well plates containing 5% FBS-MEM and cultured for 2 hours at 37° C. in a 5% CO2 bioreactor. Then, each well was added with 20 μL of an aqueous solution of the MTS-based Cell Titer 96, and then, further cultured for 1 hour at 37° C. in a 5% CO2 bioreactor. 25 μL of 10% sodium dodeceyl sulfate (SDS) solution was added into each of the wells to stop the reaction. The absorbance at 492 nm was measured to measure the growth of the cells at 0 hour.
While measuring the absorbance at 0 hour, the cells were simultaneously treated with the magnolin samples to final concentrations of 15 μM, 30 μM, and 60 μM, respectively, prepared in Example 5. The cells were cultured for 96 hours while measuring the absorbance at 24 hour intervals. In the experiment, the cell treated with DMSO alone was set as a control.

[8] = system: ATF1 and AP-1 transactivation activities; assay: ATF1 and AP-1 phosphorylation, nuclear localization and transactivation (Western blot, luciferase reporter); type: cell-based, mouse
Procedure: 1×10^6 of the cultured JB6 Cl41 cells were cultured in a cell culture dish with a diameter of 100 mm for overnight. The cells were starved and left for 24 hours, and then pretreated with magnolin at concentrations of 15 μM, 30 μM, and 60 μM of for 30 minutes, and then co-treated with […] of EGF and magnolin for 30 minutes. The proteins were extracted from the cells and visualized by Western blot.
On the other hand, the cells were co-transfected with pGAL4-ATF1-expressing plasmids and p5xGal4-luciferase reporter plasmids, and then cultured for 12 hours. The cells were pretreated with magnolin for 30 minutes, and co-treated with EGF and magnolin for 6 hours. Then, the cell culture was stopped and the activity of firefly luciferase was measured using the VIXTOR X3(PerkinElmer).

[9] = biological target: T1, ERK2; assay: In vitro kinase analysis with active ERK2 and His-RSK2-328-740; type: biochemical
Procedure: as §1, §2

[10] = system: NIH3T3 cells expressing Ras^G12V; assay: Cell proliferation and anchorage-independent colony growth of NIH3T3 cells; type: cell-based
Source text: In order to confirm the experimental results more precisely, NIH3T3 cells stably expressing mock or Ras^G12V were used to perform an additional experiment in the same manner as described above.

[11] = system: JB6 Cl41 cells; assay: Anchorage-independent cell transformation assay, EGF-induced; type: cell-based; settings: Mus musculus, JB6 Cl41, 336 h, 10 ng/mL EGF, 14 days
Procedure: JB6 Cl41 cells (8×10^3 cells) present in 1 mL of 0.3% Basal Medium Eagle (BME) agar containing 10% FBS and magnolin in concentrations of 15 μM, 30 μM, and 60 μM, respectively, were exposed to 10 ng/mL of EGF, maintained at 37° C., and cultured in a 5% CO2 bioreactor for 14 days. Then, the number and size of the colonies were counted using an ECLIPSE Ti inverted microscope and the NIS-Elements AR (V. 4.0) computer software program (NIKON Instruments Korea, Seoul, Korea).

[12] = system: JB6 Cl41 cells; assay: Cell cycle distribution by PI flow cytometry, normal culture conditions; type: cell-based, mouse; settings: for distribution in G1/G0 phase: 12 hours (control about 42%)
Procedure: To observe the cell cycle of the cells under normal cell culture conditions, JB6 Cl41 cells were cultured in a complete cell culture medium for 12 hours and treated with magnolin at final concentrations of 30 μM and 60 μM, respectively. After 12 hours, the cells were treated with trypsin, fixed, and treated with 20 μg/mL of PI at 4° C. for 15 minutes. Then, the cell cycle distribution was analyzed using the flow cytometry (BD FACS Calibur™ Flow cytometery, Franklin Lakes, N.J., USA).

[13] = system: JB6 Cl41 cells; assay: Cytotoxicity of magnolin; type: cell-based, mouse; settings: 100 μM or higher, 48 hours
Procedure: Additionally, to examine the cytotoxicity of magnolin, the cultured cells (2×10^4 cells) were aliquoted into 96-well plates containing 5% FBS-MEM and cultured overnight. Then, the cells were treated with the magnolin samples to final concentrations of 15 μM, 30 μM, 60 μM, and 100 μM respectively, prepared in the Example 5. The cells were cultured for 48 hours while measuring the absorbance at 24 hour intervals. In the experiment, the cell treated with DMSO alone was set as a control.

[14] = co-treated with EGF and magnolin

In the case of `COc1cccc(-c2cc(=O)c3ccccc3o2)c1N` [PD98059, reference compound], the “phosphorylation at Thr359/Ser363 of RSKs” value ([1]; EGF-stimulated JB6 Cl41 cells) is reported as “inhibited” and the “ERK1/2 phosphorylation at Thr202/Tyr204” value [1] is reported as “interrupts”.

`COc1ccc([C@H]2OC[C@H]3[C@@H]2CO[C@@H]3c2cc(OC)c(OC)c(OC)c2)cc1OC` [magnolin] was tested, and the “anchorage-independent colony growth of A549 cells” value [2] was “inhibited”, the “inhibition of ERK1-mediated RSK2 phosphorylation at Thr359/Ser363 and Thr577” value ([3]; in vitro kinase reaction, 100 μM ATP, magnolin 3.75 to 60 μM) was “about 90%” and the IC50 ([3]; in vitro-kinase analysis) was roughly 87 nM. The “effect of EGF on cell cycle” value [4] was “almost completely inhibited”, the “ERK2 binding to ATP-agarose beads” value [5] was “decreased” and the “inhibition of cell proliferation in A549 cells compared with H226 cells” value [6] was “more significantly”. For the same compound, the inhibition at 30 µM ([7]; 30 μM) was roughly 40%, the inhibition at 60 µM ([7]; 60 μM) was roughly 70% and the “EGF-induced ATF1 phosphorylation at Ser63” value ([8]; JB6 Cl41 cells, Western blot) was “inhibited”. For the same compound, the AP-1 transactivation activity [8, 14] was “inhibited”, the “EGF-induced c-Jun phosphorylation at Ser63 and Ser73” value [8, 14] was “inhibited” and the “nuclear phospho-c-Jun increased by EGF stimulation” value [8, 14] was “decreased”. The “nuclear phospho-ATF1 protein level induced by EGF” value ([8]; co-treated with EGF and magnolin, Western blot and immunocytofluorescence) was “decreased”, the “ATF1 transactivation activity increased by EGF stimulation” value ([8]; co-treated with EGF and magnolin, luciferase reporter) was “inhibited” and the “phosphorylation at Thr359/Ser363 of RSKs” value ([1]; EGF-stimulated JB6 Cl41 cells) was “interrupting phosphorylation; also recorded: inhibited”. The “phosphorylations of MEK, Akt, p38 kinase, and JNKs” value ([1]; EGF-stimulated JB6 Cl41 cells) was “not to be involved”, the “ERK1/2 phosphorylation at Thr202/Tyr204” value [1] was “does not interrupt the phosphorylation” and the IC50 [9] was 16.5 nM. The anchorage-independent growth [10] was “inhibited”, the “inhibition of cell proliferation compared with NIH3T3 cells expressing mock” value [10] was “more sensitive” and the inhibition at 30 µM ([11]; 30 μM) was roughly 40%. The inhibition at 60 µM ([11]; 60 μM) was roughly 75%, the “distribution in G2/M cell cycle phase compared to control” value ([12]; 30 μM and 60 μM, 12 hours) was “only a very small increase” and the “distribution in G1/G0 phase” value ([12]; 30 μM) was “about 55%”. For the same compound, the “distribution in G1/G0 phase” value ([12]; 60 μM) was “about 60%” and the cytotoxicity [13] was “no cytotoxicity was observed”.
